Drawing on patent US11427548B2 (Arvinas Operations, Inc., priority 2015, dated 2022), this text covers Dmax and DC50 for twelve molecules.

The target in the test is T1, Androgen Receptor (Homo sapiens, UniProt P10275).
T1 construct: endogenous in cells; host or cells: VCaP cells
T1 sequence (P10275 1-920): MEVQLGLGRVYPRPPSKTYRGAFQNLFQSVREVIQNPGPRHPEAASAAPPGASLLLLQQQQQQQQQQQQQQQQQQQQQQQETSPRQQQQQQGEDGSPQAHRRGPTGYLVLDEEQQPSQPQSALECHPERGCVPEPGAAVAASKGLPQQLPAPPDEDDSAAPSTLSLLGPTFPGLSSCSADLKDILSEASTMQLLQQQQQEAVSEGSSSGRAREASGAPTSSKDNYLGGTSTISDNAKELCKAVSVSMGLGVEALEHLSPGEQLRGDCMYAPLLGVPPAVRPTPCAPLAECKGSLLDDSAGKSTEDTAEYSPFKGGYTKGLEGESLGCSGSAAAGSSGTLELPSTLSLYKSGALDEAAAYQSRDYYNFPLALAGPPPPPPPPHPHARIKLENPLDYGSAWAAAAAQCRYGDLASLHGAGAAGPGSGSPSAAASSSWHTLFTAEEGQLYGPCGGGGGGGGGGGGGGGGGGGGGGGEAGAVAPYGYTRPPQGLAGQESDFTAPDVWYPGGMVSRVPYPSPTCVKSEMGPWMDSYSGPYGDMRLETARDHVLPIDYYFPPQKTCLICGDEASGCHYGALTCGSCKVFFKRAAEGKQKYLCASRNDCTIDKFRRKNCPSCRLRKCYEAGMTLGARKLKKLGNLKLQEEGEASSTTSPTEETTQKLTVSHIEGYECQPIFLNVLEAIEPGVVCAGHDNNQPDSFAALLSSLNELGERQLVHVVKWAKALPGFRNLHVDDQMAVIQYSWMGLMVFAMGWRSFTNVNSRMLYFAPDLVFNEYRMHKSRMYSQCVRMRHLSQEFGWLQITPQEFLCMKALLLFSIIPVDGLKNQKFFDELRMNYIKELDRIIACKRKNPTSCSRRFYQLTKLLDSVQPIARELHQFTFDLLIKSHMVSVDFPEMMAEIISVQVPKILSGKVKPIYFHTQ
Nature of the test: Androgen Receptor ELISA assay (PathScan AR ELISA) in VCaP cells: AR degradation, Dmax and DC50. The test is classed as cell-based. As to conditions: VCaP cells (Table 32); for Dmax: VCaP, highest percentage of Androgen Receptor degradation observed, read-out: VCaP Dmax (%); for DC50: concentration that caused 50% Androgen Receptor degradation, read-out: VCaP DC50. Summed up:
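After 24 h exposure of VCaP cells (charcoal-stripped serum, 0.1 nM R1881 agonist, 0.1% DMSO) to seven half-log compound concentrations, residual AR in lysates was measured by PathScan ELISA (TMB absorbance, 450 nm). Cells were plated at 30,000/well and grown at least 3 days beforehand.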
(ELISA stands for enzyme-linked immunosorbent assay.)

The Dmax is the greatest extent of degradation seen. What is called DC50 is the concentration giving 50% degradation. `Cc1ncsc1-c1ccc(CNC(=O)[C@@H]2C[C@@H](O)CN2C(=O)[C@@H](NC(=O)COCCCCCOc2ccc(C(=O)N[C@H]3C(C)(C)[C@H](Oc4ccc(C#N)c(C(F)(F)F)c4)C3(C)C)cc2)C(C)(C)C)cc1` [Example 155, (2S,4R)-1-[(2S)-3,3-dimethyl-2-(2-{[5-(4-{[trans-3-[4-cyano-3-(trifluoromethyl)phenoxy]-2,2,4,4-tetramethylcyclobutyl]carbamoyl}phen-oxy)pentyl]oxy}acetamido)butanoyl]-4-hydroxy-N-{[4-(4-methyl-1,3-thiazol-5-yl)phenyl]methyl}pyrrolidine-2-carboxamide]: the Dmax is above 71% and the DC50 is below 50 nM.
Consider `Cc1ncsc1-c1ccc(CNC(=O)[C@@H]2C[C@@H](O)CN2C(=O)[C@@H](NC(=O)CO[C@H](C)CCCCOc2ccc(C(=O)N[C@H]3C(C)(C)[C@H](Oc4ccc(C#N)c(Cl)c4)C3(C)C)cc2)C(C)(C)C)cc1` [Example 158, (2S,4R)-1-[(2S)-3,3-dimethyl-2-(2-{[(2R)-6-(4-{[trans-3-(3-chloro-4-cyanophenoxy)-2,2,4,4-tetramethylcyclobutyl]carbamoyl}phen-oxy)hexan-2-yl]oxy}acetamido)butanoyl]-4-hydroxy-N-{[4-(4-methyl-1,3-thiazol-5-yl)phenyl]methyl}pyrrolidine-2-carboxamide], for which the Dmax was above 71% and the DC50 is below 50 nM.
On the same counts, the results for `Cc1ncsc1-c1ccc(CNC(=O)[C@@H]2C[C@@H](O)CN2C(=O)[C@@H](NC(=O)CO[C@@H](C)CCCCOc2ccc(C(=O)N[C@H]3C(C)(C)[C@H](Oc4ccc(C#N)c(Cl)c4)C3(C)C)cc2)C(C)(C)C)cc1` [Example 159, (2S,4R)-1-[(2S)-3,3-dimethyl-2-(2-{[(2S)-6-(4-{[trans-3-(3-chloro-4-cyanophenoxy)-2,2,4,4-tetramethylcyclobutyl]carbamoyl}phen-oxy)hexan-2-yl]oxy}acetamido)butanoyl]-4-hydroxy-N-{[4-(4-methyl-1,3-thiazol-5-yl)phenyl]methyl}pyrrolidine-2-carboxamide] are above 71% and below 50 nM.
The corresponding values for `Cc1ncsc1-c1ccc(CNC(=O)[C@@H]2C[C@@H](O)CN2C(=O)[C@@H](NC(=O)COCCCC[C@@H](C)Oc2ccc(C(=O)N[C@H]3C(C)(C)[C@H](Oc4ccc(C#N)c(Cl)c4)C3(C)C)cc2)C(C)(C)C)cc1` [Example 160, (2S,4R)-1-[(2S)-3,3-dimethyl-2-(2-{[(5S)-5-(4-{[trans-3-(3-chloro-4-cyanophenoxy)-2,2,4,4-tetramethylcyclobutyl]carbamoyl}phen-oxy)hexyl]oxy}acetamido)butanoyl]-4-hydroxy-N-{[4-(4-methyl-1,3-thiazol-5-yl)phenyl]methyl}pyrrolidine-2-carboxamide] are above 71% and below 50 nM.
The corresponding values for `Cc1ncsc1-c1ccc(CNC(=O)[C@@H]2C[C@@H](O)CN2C(=O)[C@@H](NC(=O)COCCCC[C@H](C)Oc2ccc(C(=O)N[C@H]3C(C)(C)[C@H](Oc4ccc(C#N)c(Cl)c4)C3(C)C)cc2)C(C)(C)C)cc1` [Example 161, (2S,4R)-1-[(2S)-3,3-dimethyl-2-(2-{[(5R)-5-(4-{[trans-3-(3-chloro-4-cyanophenoxy)-2,2,4,4-tetramethylcyclobutyl]carbamoyl}phen-oxy)hexyl]oxy}acetamido)butanoyl]-4-hydroxy-N-{[4-(4-methyl-1,3-thiazol-5-yl)phenyl]methyl}pyrrolidine-2-carboxamide] are above 71% and below 50 nM.
As for `CC(C)(C)[C@H](NC(=O)COCCOCCCCOc1ccc(C(=O)N[C@H]2C(C)(C)[C@H](Oc3ccc(C#N)c(Cl)c3)C2(C)C)cc1)C(=O)N1C[C@H](O)C[C@H]1C(=O)NCc1ccc(-c2cncs2)cc1` [Example 162, (2S,4R)-1-[(2S)-3,3-dimethyl-2-(2-{2-[4-(4-{[trans-3-(3-chloro-4-cyanophenoxy)-2,2,4,4-tetramethylcyclobutyl]carbamoyl}phenoxy)butoxy]ethoxy}acetamido)butanoyl]-4-hydroxy-N-{[4-(1,3-thiazol-5-yl)phenyl]methyl}pyrrolidine-2-carboxamide], the Dmax was above 71% and the half-maximal degradation concentration (DC50) is below 50 nM.
On the same counts, the results for `Cc1ncoc1-c1ccc(CNC(=O)[C@@H]2C[C@@H](O)CN2C(=O)[C@@H](NC(=O)COCCCCOc2ccc(C(=O)N[C@H]3C(C)(C)[C@H](Oc4ccc(C#N)c(Cl)c4)C3(C)C)cc2)C(C)(C)C)cc1` [Example 164, (2S,4R)-1-[(2S)-3,3-dimethyl-2-{2-[4-(4-{[trans-3-(3-chloro-4-cyanophenoxy)-2,2,4,4-tetramethylcyclobutyl]carbamoyl}phenoxy)butoxy]acetamido}butanoyl]-4-hydroxy-N-{[4-(4-methyl-1,3-oxazol-5-yl)phenyl]methyl}pyrrolidine-2-carboxamide] are above 71% and below 50 nM.
The corresponding values for `Cc1ncsc1-c1ccc(CNC(=O)[C@@H]2C[C@@H](O)CN2C(=O)[C@@H](NC(=O)COCCCCOc2ccc(C(=O)N[C@H]3C(C)(C)[C@H](Oc4ccc(C#N)c(C(F)(F)F)c4)C3(C)C)cc2)C(C)(C)C)cc1` [Example 165, (2S,4R)-1-[(2S)-3,3-dimethyl-2-{2-[4-(4-{[trans-3-[4-cyano-3-(trifluoromethyl)phenoxy]-2,2,4,4-tetramethylcyclobutyl]carbamoyl}phenoxy)butoxy]acetamido}butanoyl]-4-hydroxy-N-{[4-(4-methyl-1,3-thiazol-5-yl)phenyl]methyl}pyrrolidine-2-carboxamide] are above 71% and below 50 nM.
On the same counts, the results for `Cc1ncoc1-c1ccc(CNC(=O)[C@@H]2C[C@@H](O)CN2C(=O)[C@@H](NC(=O)COCCCCOc2ccc(C(=O)N[C@H]3C(C)(C)[C@H](Oc4ccc(C#N)c(C(F)(F)F)c4)C3(C)C)cc2)C(C)(C)C)cc1` [Example 166, (2S,4R)-1-[(2S)-3,3-dimethyl-2-{2-[4-(4-{[trans-3-[4-cyano-3-(trifluoromethyl)phenoxy]-2,2,4,4-tetramethylcyclobutyl]carbamoyl}phenoxy)butoxy]acetamido}butanoyl]-4-hydroxy-N-{[4-(4-methyl-1,3-oxazol-5-yl)phenyl]methyl}pyrrolidine-2-carboxamide] are 51 to 70% and below 50 nM.
On to `Cc1ncsc1-c1ccc([C@H](C)NC(=O)[C@@H]2C[C@@H](O)CN2C(=O)[C@@H](NC(=O)COCCCCOc2ccc(C(=O)N[C@H]3C(C)(C)[C@H](Oc4ccc(C#N)c(Cl)c4)C3(C)C)cc2)C(C)(C)C)cc1` [Example 167, (2S,4R)-1-[(2S)-3,3-dimethyl-2-{2-[4-(4-{[trans-3-(3-chloro-4-cyanophenoxy)-2,2,4,4-tetramethylcyclobutyl]carbamoyl}phenoxy)butoxy]acetamido}butanoyl]-4-hydroxy-N-[(1S)-1-[4-(4-methyl-1,3-thiazol-5-yl)phenyl]ethyl]pyrrolidine-2-carboxamide], for which the Dmax is above 71% and the DC50 was below 50 nM.
The corresponding values for `Cc1ncoc1-c1ccc([C@H](C)NC(=O)[C@@H]2C[C@@H](O)CN2C(=O)[C@@H](NC(=O)COCCCCOc2ccc(C(=O)N[C@H]3C(C)(C)[C@H](Oc4ccc(C#N)c(Cl)c4)C3(C)C)cc2)C(C)(C)C)cc1` [Example 168, (2S,4R)-1-[(2S)-3,3-dimethyl-2-{2-[4-(4-{[trans-3-(3-chloro-4-cyanophenoxy)-2,2,4,4-tetramethylcyclobutyl]carbamoyl}phenoxy)butoxy]acetamido}butanoyl]-4-hydroxy-N-[(1S)-1-[4-(4-methyl-1,3-oxazol-5-yl)phenyl]ethyl]pyrrolidine-2-carboxamide] are above 71% and below 50 nM.
`Cc1ncsc1-c1ccc([C@@H](C)NC(=O)[C@@H]2C[C@@H](O)CN2C(=O)[C@@H](NC(=O)COCCCCOc2ccc(C(=O)N[C@H]3C(C)(C)[C@H](Oc4ccc(C#N)c(Cl)c4)C3(C)C)cc2)C(C)(C)C)cc1` [Example 171, (2S,4R)-1-[(2S)-3,3-dimethyl-2-{2-[4-(4-{[trans-3-(3-chloro-4-cyanophenoxy)-2,2,4,4-tetramethylcyclobutyl]carbamoyl}phenoxy)butoxy]acetamido}butanoyl]-4-hydroxy-N-[(1R)-1-[4-(4-methyl-1,3-thiazol-5-yl)phenyl]ethyl]pyrrolidine-2-carboxamide]: the Dmax lay in the range of 26 to 50% and the DC50 is below 50 nM.
